Where two headings read alike, the source gives them in different places.
How the values were obtained:
[1] = Cell viability (MTT) assay, CC50, Study APS002-1; assay type: cell-based; conditions: African green monkey, Vero E6-TMPRSS2 cells
Description: In the antiviral cell assay, Vero E6-TMPRSS2 cells were seeded into 96 well plates and grown to 80-90% confluency. Compounds were prepared using an 8-point, half-log (˜3-fold) dilution starting at 100 μM. Vehicle (Placebo) and positive control (Remdesivir) wells were included to control for any influence on cell viability. After one hour, compounds were removed and virus was added at a single concentration (100× Median Tissue Culture Infectious Dose (TCID50)), together with equivalent serial dilutions of test compound. Following infection/treatment, cells were incubated for a further hour. After infection, virus/treatment was removed and an overlay medium was added to the cells, together with equivalent serial dilutions of test compound. Cells were visually inspected daily for the appearance of any cytopathic effect (“CPE”). A cell viability (MTT) assay was performed once CPE was complete.

in vivo [2] = conditions: mouse
mice = assay: 5-day repeated-dose local and systemic toxicity study of HCQ inhalation (Example 12); assay type: in vivo
Description: A total of 200 mice were used, in which 40 mice (male:female=1:1) were assigned to each study arm.
Mice were dosed four sessions a day for 5 days, with 3 hours interval between two consecutive treatment sessions. Each session was a 6-minute nose-only inhalation treatment after spraying the designated articles (4, 8 or 16 sprays) into the 21.5 L breathing tank.
After the treatment, 24 mice (male:female=1:1) were sacrificed on Day 6 (or Day-1 post completion of treatment, PCT Day-1) for acute toxicity evaluation and 16 mice (male:female=1:1) were sacrificed on Day 19 (PCT Day-14) for recovery evaluation.
Standard local toxicity evaluation items included: (1) general safety including in-life daily observation and body weight measurement; (2) gross macroscopic observation and organ weight measurement; (3) clinical pathology including hematology and blood chemistry tests; and (4) microscopic histopathological examination.

in vivo [3] = assay: in vivo; set-up: species or system mice; conditions: mouse
Description: The breathing tank 400 is a specially designed stainless steel breathing tank, which is used for mice to breathe in aerosolized formulations of the medications described earlier in the Examples. At the start of each treatment session, a specific number of sprays of a medication formulation were sprayed into the pre-cleaned tank. To ensure consistent concentration of test article, a stirring fan installed inside the tank was started at a speed of 400 rpm before the first spray of the test articles (such as, the medications). Thirty seconds after the last spray, eight mice were mounted to the inhalation chamber to breathe in aerosolized formulations of the medications from the breathing tank for a specified duration. Animals were then taken off the breathing tank (defined as the “0” time point post dosing).
The purpose of the study is to evaluate the lung delivery characteristics of single dose HCQ inhalation in a mouse model. […] Thirty seconds after the last spray (t=0 minute), eight mice were mounted to the inhalation chamber to breathe the medication aerosol from the breathing tank for 10 minutes.
Mice were euthanized and mice lung samples were collected and homogenated at eight time points of 10′, 30′, 45′, 1 h, 2 h, 3 h, 4 h and 6 h after treatment. Four mice were used at each time point and in total 32 mice were studied.

in vivo [4] = conditions: mouse; remark: listed apart in the source
Description: For the single-dose study, 48 mice were treated with the highest dose level (16 sprays) of Formulation 11. Twelve time points were measured: baseline (within one hour before dosing), 5 min, 15 min, 30 min, 1 h, 2 h, 3 h, 4 h, 6 h, 9 h, 24 h and 48 h post dosing. Each animal was sampled twice at two different time points and four mice per gender were used at each time point.

SARS-CoV-2 virus = assay: microbe, parasite or virus in culture; assay type: cell-based; conditions: Severe acute respiratory syndrome coronavirus 2, VeroE6/TMPRSS2
[5] = Dose range and dose response study of HCQ for lung delivery (Example 9); conditions: mouse, in vivo, 16 sprays
[6] = cited from earlier work
[7] = Estimation of HCQ concentration in alveolar lining fluid (ALF) (Example 11); conditions: mouse, in vivo, 10 sprays
[8] = in vivo

## CCN(CCO)CCCC(C)Nc1ccnc2cc(Cl)ccc12 (stereo not drawn) [HCQ, Hydroxychloroquine]
[1]
  CC50: > 100 µM
In vivo [2]; both
  half-life: 6 to 8 h
In vivo [2]
  half-life: 4.6 to 7.8 h
mice; Formulation 11, PCT-Day 1
  local toxicity, nasal turbinates and larynx: low incidence of minor changes
mice; mouse, in vivo
  histopathological finding in the thymus: minimal to mild tingible body macrophages
  local toxicity, histopathological examination of six organs: No dose related abnormalities
In vivo [3]
  appearance of mice after the treatment: appeared healthy and normal
In vivo [3]; inhaled or intranasal
  half-life: 4.6 h
In vivo [4]; both
  half-life: ≥ 4 h
In vivo [4]; both, in vivo, 16 sprays
  Kp: ≥ 25
In vivo [4]; female, in vivo, 16 sprays
  Kp at 0.083 h: 66.3
  Kp at 0.25 h: 50.6
  Kp at 0.5 h: 38
  Kp at 1 h: 100
  Kp at 3 h: 193
  Kp at 24 h: 26.9
  concentration at 0.083 h: 133 ng/mL
  concentration at 0.25 h: 89.2 ng/mL
  concentration at 0.5 h: 93.6 ng/mL
  concentration at 1 h: 40.2 ng/mL
  concentration at 3 h: 16.8 ng/mL
  concentration at 24 h: 12.6 ng/mL
In vivo [4]; male, in vivo, 16 sprays
  Kp at 0.083 h: 58.4
  Kp at 0.25 h: 51.5
  Kp at 0.5 h: 85.2
  Kp at 1 h: 90.9
  Kp at 3 h: 250
  Kp at 24 h: 56.5
  concentration at 0.083 h: 163 ng/mL
  concentration at 0.25 h: 92 ng/mL
  concentration at 0.5 h: 55 ng/mL
  concentration at 1 h: 40.2 ng/mL
  concentration at 3 h: 13.2 ng/mL
  concentration at 24 h: 4.9 ng/mL
SARS-CoV-2 virus; Vero E6-TMPRSS2 cells, virus 100× TCID50, read-out: EC50
  EC50: 11.3 µM
[5]; female
  concentration at 0.083 h: 8820 ng/g
  concentration at 0.25 h: 4510 ng/g
  concentration at 0.5 h: 3560 ng/g
  concentration at 1 h: 4040 ng/g
  concentration at 3 h: 3250 ng/g
  concentration at 24 h: 339 ng/g
[5]; male
  concentration at 0.083 h: 9510 ng/g
  concentration at 0.25 h: 4740 ng/g
  concentration at 0.5 h: 4680 ng/g
  concentration at 1 h: 3660 ng/g
  concentration at 3 h: 3300 ng/g
  concentration at 24 h: 277 ng/g
[6]; HCQ oral tablet delivery
  half-life: 123.5 days
[6]; in vivo, po
  share of oral tablet dose distributed to the plasma and ultimately reaching the lungs and alveoli: about 0.07%
[7]
  concentration at 10 min: 476 µM
  concentration at 6 h: 188 µM
[8]
  time the delivered medication can be detected in the mouse lungs: no less than 24 h

## CCC(CC)COC(=O)[C@H](C)N[P@](=O)(OC[C@H]1O[C@@](C#N)(c2ccc3c(N)ncnn23)[C@H](O)[C@@H]1O)Oc1ccccc1 [Remdesivir]
[1]
  CC50: > 20 µM
SARS-CoV-2 virus
  EC50: 2.35 µM
